Test results taken from patent US6716603B2, “Nucleic acids encoding a chloride channel protein” (Genaera Corporation, priority 1998, dated 2004).

How the values were obtained:
[1] = test system: IL-9 induced eotaxin; experiment: IL-9 induced eotaxin production in murine primary lung cultures (eotaxin ELISA); assay type: cell-based, mouse; conditions: 100 μM channel blocker, FVB primary lung cultures with mIL-9, FIG. 18
Source text: IL-9 is known to induce eotaxin from lung epithelial cells (Dong, et.al., submitted for publication, Eur. J. Immunol.). In situ expression analysis of IL-9 transgenic mice found ICACC-1 expression to be predominant in airway epithelial cells. These epithelial cells also produce eotaxin, and eotaxin can be induced by IL-9 in these cells as well as primary lung cultures from a variety of different mouse strains. Because eotaxin and ICACC-1 are both induced by IL-9 in lung epithelial cells, it is possible that inhibiting ICACC-1 can inhibit eotaxin or other cytokines such as IL-4 or IL-13 (Doucet et al., J. Clin. Invest. 101:2129-2139, 1998.) that induce eotaxin production in lung epithelial cells. To test this hypothesis, we employed a murine primary lung assays, where lung cells were harvested from FVB/NJ mice as described in Example 5A and processed for in vitro analysis as described in Example 6 for human primary lung culture. Cells were incubated with or without 20 ng/ml recombinant mIL-9 for 48 hours. After 48 hours, conditioned supernatant was collected and analyzed for murine eotaxin production using an eotaxin ELISA kit (R&D Systems). Recombinant murine eotaxin was used to generate a standard curve. […] A culture derived from IL-9 transgenic mouse lung (TG5 lane) was used as a positive control. […]

[2] = test system: ICACC-1; experiment: ICACC-1 RNA expression in lung after intratracheal IL-9 (RT-PCR); assay type: in vivo, mouse; conditions: C57B6 mice, 50 μl of 0.1 mg/ml IL-9 intratracheal daily for ten days, FIG. 8
Description: Message was analyzed by PCR as described (Nicolaides et al., 1995) and via Northern blot. Primers used to generate murine ICACC-1 message were; sense 5′-[…]-3′ (SEQ ID NO:7) (nucleotides 689-712) and antisense 5′-[…]-3′ (SEQ ID NO:8) (nucleotides 1041-1064) which produce a gene product of 376 bp. DHFR was assayed as an internal control to measure for cDNA integrity using primers previously described (Nicolaides et al., 1991). Amplification conditions used were 95° C. for 30 seconds, 58° C. for 1.5 minutes and 72° C. for 1.5 minutes for 35 cycles. For Northern blot analysis, total RNA derived from Tg5 or FVB lungs was electrophoresed on 1.5% formaldehyde gels, transferred to nylon membranes and probed with a DNA fragment comprising the murine ICACC-1 cDNA.
To confirm that the expression of IL-9 was critically related to the expression of ICACC-1 and to control for genetic background specifically, recombinant murine IL-9 was introduced into the lung of murine strain C57B6. Recombinant IL-9 was instilled into the trachea of anesthetized mice by addition of 50 μl of a 0.1 mg/ml IL-9 solution or vehicle alone (0.1% bovine serum albumin) daily for ten days. […]
Expression of ICACC-1 RNA was measured as described in Example 3.

O=S(=O)(O)c1cc(N=C=S)ccc1C=Cc1ccc(N=C=S)cc1S(=O)(=O)O [DIDS]
eotaxin production inhibited [1]: 33%

CC(=O)Nc1ccc(C=Cc2ccc(N=C=S)cc2S(=O)(=O)O)c(S(=O)(=O)O)c1 [SITS]
eotaxin production inhibited [1]: 41%

B1: mIL-9: recombinant murine IL-9 (protein, UniProt P15247 19-144, looked up)
Interleukin-9: QRCSTTWGIRDTNYLIENLKDDPPSKCSCSGNVTSCLCLSVPTDDCTTPCYREGLLQLTNATQKSRLLPVFHRVKRIVEVLKNITCPSFSCEKPCNQTMAGNTLSFLKSLLGTFQKTEMQRQKSRP
ICACC-1 RNA expression in lung (RT-PCR) [2]: expression increased
